In US20250281540A1, “Methods for Haematopoietic Stem Cell Transplantation” (Ospedale San Raffaele S.r.l., priority 2022, published 2025):

How the values were obtained:
WBC, LSK and SLAM HSC [1] = experiment: Mobilization protocols in Cd40Ig^−/− mice (PB and BM counts); assay type: in vivo
Description: To investigate the therapeutic potential of M-HSCT, we took advantage of Cd40Ig^−/− mice, which faithfully recapitulate the phenotype of the human primary combined immunodeficiency Hyper IgM Syndrome 1 (HIGM-1; Renshaw, B. R., et al. (1994). J Exp Medicine 180, 1889-1900). Because G-CSF treatment may have a detrimental effect on the BM niche, we investigated the efficiency of mobilization protocols differing for its presence or absence, the G-CSF dose and the duration and combination with other drugs (FIG. 2A).
(§1) Blood samples were also analysed with the hemocytometer Sysmex KX-21N (Block scientific, Sysmex corporation) to quantify absolute numbers.
Different protocols were tested in Cd40Ig^−/− mice: (i) s.c. pump delivering 250 μg/kg/day of G-CSF for 7 days (G7); (ii) s.c. pump delivering 250 μg/kg/day of G-CSF for 7 days, with i.p. injections of AMD3100 (5 mg/kg/day) on day 6 and 7 (G7A); (iii) s.c. pump delivering 250 μg/kg/day of G-CSF for 7 days, with i.p. injections of AMD3100 (5 mg/kg/day) and BIO5192 (1 mg/kg/day) on day 6 and 7 (G7AB); (iv) s.c. pump delivering 125 μg/kg/day of G-CSF for 7 days, with i.p. injections of AMD3100 (5 mg/kg/day) and BIO5192 (1 mg/kg/day) on day 6 and 7 (G7AB-H); (v) G-CSF delivered by i.p. injections (125 μg/kg) every 12 hours for four days, with AMD3100 s.c. injections (5 mg/kg) 14 hours after the last dose of G-CSF (G5A); (vi) G-CSF delivered by i.p. injections (125 μg/kg) every 12 hours for four days, with AMD3100 (5 mg/kg) and BIO5192 (1 mg/kg) s.c. injections 14 hours after the last dose of G-CSF (G5AB); (vii) s.c. pump delivering 250 μg/kg/day of G-CSF for 3 days, with i.p. injections of AMD3100 (5 mg/kg/day) and BIO5192 (1 mg/kg/day) on day 6 and 7 (G3AB); (viii) s.c. pump delivering 125 μg/kg/day of G-CSF for 3 days, with i.p. injections of AMD3100 (5 mg/kg/day) and BIO5192 (1 mg/kg/day) on day 6 and 7 (G3AB-H); and (ix) AMD3100 (5 mg/kg/day) and BIO5192 (1 mg/kg/day) i.p. injected for three days.
Bone marrow vacancy and estimated chimerism were calculated based on the following formulas in Cd40Ig^−/− mice (summarized in table below): • To determine the total number of SLAM HSC per mouse at steady state (FIG. 2G, left panel), lower limbs (which account for 20% of the total BM) were collected in a defined volume and counted, paralleled with their characterization through FACS. We found 2500 SLAM HSC/lower limbs, therefore reaching a total of 12,500 SLAM HSC/mouse (2500*100/20). This number is in accordance with other published papers (Chen, J., et al. (2008). Experimental hematology, 36(10), 1236-1243; Karpova, D., et al. (2017). Blood, 129(21), 2939-2949; and Singh, P., et al. (2020). Stem cells (Dayton, Ohio), 38(7), 849-859). • To determine the total number of SLAM HSC that egressed from the BM post-G7AB mobilization, we examined the BM of mobilized mice. 1100 SLAM HSC were recovered in the lower limbs, reaching a total of 5500 SLAM HSC in the BM of mobilized mice. Therefore, to determine the number of SLAM HSC egressed, the number of SLAM HSC present post-mobilization was subtracted from the total number of SLAM HSC present in the steady state mouse, leading to an assessment of 7000 SLAM HSC egressing from the BM (12500-5500). • The mobilized SLAM HSC/mL was calculated based on the bleeding performed at the peak of mobilization in mobilized mice (FIG. 2G, right panel). The blood was analyzed through hematocytometer (WBC/mL) and FACS staining (% subpopulation). […]

[2] = test system: GFP+ cells within the hCD45+ population; experiment: M-HSCT in hematochimeric mice with drug-resistant CXCR4 variant; AMD3465 protocol; assay type: in vivo, NSGW41 or NBSGW mice
Description: FIG. 12. […] NSGW41 or NBSGW mice were humanized with human mobilized peripheral blood CD34+ cells until 10% chimerism was achieved. Mice were then mobilized with G-CSF for 7 days through subcutaneous pump implantations and with two injections of AMD3100 and BIO5192 at day 6 and 7. For the second transplant, GFP lentiviral vector-transduced cells from the same donor used to humanize the mice were electroporated with either CXCR4 wild type or CXCR4^D262N variant. The donor cells were then transplanted either at 3 h or immediately after the last injection of AMD3100. • (B) Human chimerism over time after mobilization, expressed as % of human CD45+ cells present in peripheral blood (right panel), and exchange efficiency (left panel) expressed as % of GFP+ cells within the hCD45+ population. CXCR4 Var=CXCR4 D262N. • (C) Mobilization efficiency of the standard protocol (G7AB) or the modified protocol with AMD3465 (G7AB*) measured as white blood cell count (WBC, left panel), and human CD34+CD38− cells (right panel). • (D) Human chimerism over time after mobilization, expressed as % of hCD45+ cells in peripheral blood (right panel), and exchange efficiency (left panel) expressed as % of GFP+ cells within the hCD45+ population. […]

WBC, LSK and SLAM HSC [3] = experiment: Mobilization of WBC, LSK and SLAM HSC into the circulation of C57BL/6J CD45.2 mice; assay type: in vivo; conditions: addition of BIO5192 to G7A (G7AB)
Description: We tested two mobilization regimens in mice, one modeling a clinically approved protocol using G-CSF and AMD3100 (G7A), and the other one also comprising BIO5192 (G7AB). C57BL/6J CD45.2 mice were treated with G-CSF using a subcutaneous pump for a week combined with either AMD3100, or the combination of AMD3100 and BIO5192, delivered intraperitoneally at day 6 and 7 (FIG. 1A; FIG. 6B).
The addition of BIO5192 led to a higher mobilization of WBC, LSK and SLAM HSC, leading to an additional 2-fold increase of SLAM HSC over G7A levels.
as §1

CD45.1 Lin^− donor cells = experiment: M-HSCT: donor CD45.1 chimerism after mobilization of CD45.2 recipients; assay type: in vivo, C57BL/6J CD45.2 mice; conditions: addition of BIO5192 to the G-CSF/AMD3100 protocol (G7AB); 2×10^6 CD45.1 Lin^− cells; PB
Description: To test if these levels of mobilization, and the subsequent BM niche availability, were sufficient to allow engraftment of donor cells, 2×10^6 CD45.1 lineage negative (Lin^−) cells, purified from the BM, were transplanted into CD45.2 congenic recipients after the last injection of AMD3100 or AMD3100/BIO5192 (FIG. 1A, C; FIG. 6D).
Donor mice between 6 and 10 weeks of age were euthanized by CO2, and BM cells were retrieved from femurs, tibias, and humeri. HSPCs were purified by Lin− selection using the mouse Lineage Cell Depletion Kit (Miltenyi Biotec) according to the manufacturer's instructions. Cells were then cultured (for 2 hours or overnight) in serum-free StemSpan medium (StemCell Technologies) containing penicillin, streptomycin, glutamine, and a combination of mouse cytokines (20 ng/ml IL-3, 100 ng/ml SCF, 100 ng/ml Flt-3L, 50 ng/ml TPO all from PeproTech), at a concentration of 2-5×10^6 cells.ml^−1. Purified Lin^− cells were transplanted at a total dose of 2×10^6 cells/mouse into 8 to 12-week-old mobilized mice, three hours after the last injection of AMD3100 and/or Bio5192. Serial collections of blood from the retro-orbital vein were performed to monitor the hematological parameters and donor cell engraftment. At the end of the experiment, BM, thymus and spleen, and lymph nodes were harvested and analyzed.

VLA-4 = VLA-4 (Homo sapiens, UniProt P05556+P13612); conditions: VLA-4 versus α4β7 integrin; Ramirez et al. 2009; cited from earlier work
VLA-4, sequence (P13612 34-1032): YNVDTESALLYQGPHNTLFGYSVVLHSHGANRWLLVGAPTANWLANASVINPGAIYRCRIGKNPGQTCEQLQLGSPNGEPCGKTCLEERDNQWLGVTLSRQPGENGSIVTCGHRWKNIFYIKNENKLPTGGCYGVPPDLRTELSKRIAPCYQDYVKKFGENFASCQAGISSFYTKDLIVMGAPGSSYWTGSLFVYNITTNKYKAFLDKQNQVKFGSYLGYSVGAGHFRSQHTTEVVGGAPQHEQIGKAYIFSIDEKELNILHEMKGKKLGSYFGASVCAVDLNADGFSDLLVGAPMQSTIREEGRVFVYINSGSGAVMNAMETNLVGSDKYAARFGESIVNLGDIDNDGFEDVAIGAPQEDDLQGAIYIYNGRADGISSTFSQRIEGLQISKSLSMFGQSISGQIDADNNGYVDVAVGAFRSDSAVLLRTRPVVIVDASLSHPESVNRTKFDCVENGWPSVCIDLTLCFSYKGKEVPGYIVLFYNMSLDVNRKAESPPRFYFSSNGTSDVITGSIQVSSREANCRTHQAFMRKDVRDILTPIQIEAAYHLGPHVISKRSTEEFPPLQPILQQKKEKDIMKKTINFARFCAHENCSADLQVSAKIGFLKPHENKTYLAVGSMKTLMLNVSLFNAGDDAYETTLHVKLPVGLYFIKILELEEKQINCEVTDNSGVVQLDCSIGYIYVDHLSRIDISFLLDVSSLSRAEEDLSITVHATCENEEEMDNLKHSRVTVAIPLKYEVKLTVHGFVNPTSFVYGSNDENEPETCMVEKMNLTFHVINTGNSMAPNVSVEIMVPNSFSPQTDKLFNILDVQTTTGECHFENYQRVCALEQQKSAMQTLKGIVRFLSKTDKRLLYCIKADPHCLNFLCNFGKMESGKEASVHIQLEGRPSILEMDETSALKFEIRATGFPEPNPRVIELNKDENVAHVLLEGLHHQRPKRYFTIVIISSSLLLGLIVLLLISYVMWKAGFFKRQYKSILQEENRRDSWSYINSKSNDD
VLA-4, sequence (P05556 21-798): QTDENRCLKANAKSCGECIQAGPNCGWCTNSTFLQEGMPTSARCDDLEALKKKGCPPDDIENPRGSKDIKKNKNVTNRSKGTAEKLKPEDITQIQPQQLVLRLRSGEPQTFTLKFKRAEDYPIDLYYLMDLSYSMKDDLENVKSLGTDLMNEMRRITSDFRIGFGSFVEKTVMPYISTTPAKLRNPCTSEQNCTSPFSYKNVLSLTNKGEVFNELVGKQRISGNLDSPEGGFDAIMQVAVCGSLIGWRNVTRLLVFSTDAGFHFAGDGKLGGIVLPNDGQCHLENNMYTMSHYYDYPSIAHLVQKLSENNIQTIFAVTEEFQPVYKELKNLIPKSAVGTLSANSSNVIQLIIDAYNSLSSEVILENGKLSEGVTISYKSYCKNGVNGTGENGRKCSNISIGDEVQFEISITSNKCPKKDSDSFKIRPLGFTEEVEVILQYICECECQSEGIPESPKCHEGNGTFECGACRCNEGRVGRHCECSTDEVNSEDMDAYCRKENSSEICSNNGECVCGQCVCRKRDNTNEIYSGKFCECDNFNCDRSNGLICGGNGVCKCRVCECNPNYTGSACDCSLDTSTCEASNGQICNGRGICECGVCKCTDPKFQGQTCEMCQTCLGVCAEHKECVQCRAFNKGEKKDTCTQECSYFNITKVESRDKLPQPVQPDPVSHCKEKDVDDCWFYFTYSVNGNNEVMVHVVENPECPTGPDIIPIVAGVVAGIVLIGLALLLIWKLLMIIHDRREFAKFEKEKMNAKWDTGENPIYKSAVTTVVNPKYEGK

MMP9 = experiment: ELISA on BM extracellular extracts, MMP9; assay type: in vivo, Cd40Ig^−/− mice
Description: (§2) For ELISA performed on BM matrix, femurs and tibias were repeatedly flushed with 1 mL of cold PBS. Cells were pelleted by centrifugation at 300 g for 10 minutes at 4° C., supernatant was then collected and stored at −80° C. ELISA has been performed following manufacturer instruction after a 1:100 dilution with 1× Assay Diluent for MMP9 (Thermo Scientific) or on undiluted BM matrix for CXCL12 (Sigma-Aldrich).

CXCL12 = experiment: ELISA on BM extracellular extracts, CXCL12; assay type: in vivo, Cd40Ig^−/− mice
Description: as §2

Molecule: c1cc(CN2CCCNCCNCCCNCC2)ccc1CN1CCCNCCNCCCNCC1 [AMD3100, plerixafor]
- increase of mobilized LSK (WBC, LSK and SLAM HSC [1]; addition of AMD3100 to the standard G-CSF treatment): 3 fold
- time of peak of mobilization of WBC, LSK and SLAM HSC (WBC, LSK and SLAM HSC [1]; post injection, PB analysis): around 3 hours

Molecule: c1ccc(CNCc2ccc(CN3CCCNCCNCCCNCC3)cc2)nc1 [AMD3465]
- exchange efficiency ([2]; AMD3100 or AMD3465, donor cells transplanted at the peak of mobilization): remained unchanged
- mobilization efficiency ([2]; AMD3465 compared to AMD3100 in the standard protocol with G-CSF and BIO5192): not affected

Molecule: Cc1ccccc1NC(=O)Nc1ccc(CC(=O)N(C)[C@@H](CC(C)C)C(=O)NCC[C@H](NC(=O)[C@@H]2CCCN2S(=O)(=O)c2cc(Cl)cc(Cl)c2)C(=O)O)cc1 [BIO5192]
- additional increase of SLAM HSC over G7A levels (WBC, LSK and SLAM HSC [3]): 2 fold
- donor chimerism, median (CD45.1 Lin^− donor cells): 30%
- further increase of mobilized LSK (WBC, LSK and SLAM HSC [1]; BIO5192 added to G-CSF and AMD3100): 5 fold
- affinity for VLA-4 higher than for the related α4β7 integrin (VLA-4): 250- to 1000 fold

B1: G-CSF: granulocyte colony-stimulating factor (Lenograstim) delivered by osmotic pump (protein, UniProt P09919 31-207, looked up)
Granulocyte …: TPLGPASSLPQSFLLKCLEQVRKIQGDGAALQEKLVSECATYKLCHPEELVLLGHSLGIPWAPLSSCPSQALQLAGCLSQLHSGLFLYQGLLQALEGISPELGPTLDTLQLDVADFATTIWQQMEELGMAPALQPTQGAMPAFASAFQRRAGGVLVASHLQSFLEVSYRVLRHLAQP
- blood neutrophils and monocytes counts (WBC, LSK and SLAM HSC [1]; PB after mobilization protocols): highly increased
- level of CXCR4 expression on circulating SLAM HSC (WBC, LSK and SLAM HSC [1]; with versus without G-CSF mobilization): lower
- MMP9 in the BM stroma (MMP9): increased
- CXCL12 in the BM stroma (CXCL12): decreased
